Experimental findings from patent US20040254241A1, “Aryl sulfamate derivatives” (priority 2004, published 2004) are described below.

The target of this assay is T1, recombinant human estrone sulfatase (Homo sapiens, UniProt P08842).
T1 construct: made in house; host or cells: Chinese Hamster Ovary (CHO) cells
T1 sequence (P08842 22-583): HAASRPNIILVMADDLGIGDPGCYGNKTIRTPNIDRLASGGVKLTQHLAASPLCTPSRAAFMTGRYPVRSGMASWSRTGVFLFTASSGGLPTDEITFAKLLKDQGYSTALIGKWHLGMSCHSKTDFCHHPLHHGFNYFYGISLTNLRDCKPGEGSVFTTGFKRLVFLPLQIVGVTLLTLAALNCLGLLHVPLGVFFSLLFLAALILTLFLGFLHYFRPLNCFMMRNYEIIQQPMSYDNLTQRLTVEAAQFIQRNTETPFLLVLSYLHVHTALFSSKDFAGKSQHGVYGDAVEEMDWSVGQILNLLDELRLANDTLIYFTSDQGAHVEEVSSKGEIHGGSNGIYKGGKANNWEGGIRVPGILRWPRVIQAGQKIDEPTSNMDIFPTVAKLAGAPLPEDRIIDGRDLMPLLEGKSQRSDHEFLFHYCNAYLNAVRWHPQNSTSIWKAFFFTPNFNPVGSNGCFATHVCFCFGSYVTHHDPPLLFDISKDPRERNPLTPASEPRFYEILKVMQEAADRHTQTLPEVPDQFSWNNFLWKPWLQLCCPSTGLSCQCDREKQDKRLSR
The assay can be described thus: Test for inhibition of estrone sulfatase (steroid sulfatase). In kind it is biochemical. The conditions noted are these: 4-methylumbelliferyl sulfate 0.3 mmol/L, phosphate buffer pH 7.5, 37° C., 1 hour; enzyme expressed in CHO cells, partially purified; read-out: Inhibitory activity against steroid sulfatase IC50. The protocol: Test Example 1: Test for Inhibition of Estrone Sulfatase (Steroid Sulfatase)
4-Methylumbelliferyl sulfate (final concentration 0.3 mmol/L), recombinant human estrone sulfatase (7.8 ng/well), and each solution of the test compound having each test concentrations (test compound was dissolved in 0.001 mL of DMSO) were added to a phosphate buffer (pH 7.5) (final volume 0.1 mL) containing 0.28 mol/L sucrose and 0.04 mol/L nicotinamide. An enzyme reaction was conducted at 37° C. for 1 hour. The human estrone sulfatase gene was introduced into Chinese Hamster Ovary (CHO) cells, and the recombinant human estrone sulfatase was expressed, then it was used after partial purification. After completing the enzyme reaction, 2 mol/L glycine-sodium hydroxide solution (pH 10.3) (0.13 mL) was added and stirred. Using a fluorescent plate reader (Cyto Fluor II), the fluorescent strength of the generated 4-methylumbelliferone was measured. The measurements were conducted in duplicate at the same time. The fluctuations within the assay were within 10%. An enzyme reaction without the presence of a test compound was conducted at the same time. The inhibitory activity against estrone sulfatase for each concentration of the test compounds was calculated using the following equation.
A: Amount of 4-methylumbelliferone when test compound is present
B: Amount of 4-methylumbelliferone when test compound is not present
Inhibitory activity against estrone sulfatase [formula]
The inhibitory activity against estrone sulfatase of the aryl sulfamate derivative can be expressed as the concentration (IC50) of aryl sulfamate derivative at which the estrone sulfatase activity in the presence of the aryl sulfamate derivative is half of that when no test compound is added.

The term IC50 denotes the concentration at which inhibition is half-maximal. On to `CCCCCCCCCNC(=O)/C=C/c1ccc(OS(N)(=O)=O)cc1` [Compound 1], for which the IC50 came out at 0.073 µM.
Take `CCCCCCCCCNC(=O)/C(C)=C/c1ccc(OS(N)(=O)=O)cc1` [Compound 3]: the IC50 came to 0.061 µM.
For `CCCCCCCCCNC(=O)/C(C#N)=C(\C)c1ccc(OS(N)(=O)=O)cc1` [Compound 13], the IC50 stood at 0.012 µM.
Regarding `CCCCCCCCCNC(=O)/C(Br)=C/c1ccc(OS(N)(=O)=O)cc1` [Compound 42], the IC50 is 0.054 µM.
Regarding `CCCCCCCCCNC(=O)/C(I)=C/c1ccc(OS(N)(=O)=O)cc1` [Compound 43], the half-inhibitory concentration (IC50) worked out at 0.059 µM.
With `CCCCCCCCCNC(=O)/C(C#N)=C(\C)c1ccc(OS(N)(=O)=O)c(Cl)c1` [Compound 55], the IC50 is 0.038 µM.
In the case of `CCCCCCCCCNC(=O)/C(C#N)=C(\C)c1ccc(OS(N)(=O)=O)c(Br)c1` [Compound 56] it was 0.041 µM.
